Measured values reported in PMC10313671, “Accelerating the prediction and discovery of peptide hydrogels with human-in-the-loop” (Nature Communications, 2023).
Where a SMILES comes first, the peptide text is derived from it.

How the values were obtained:
[1] = Peptide hydrogel formation, vial-inverting method; assay type: physicochemical; design: key to EXP / GELATION: 0: no hydrogel; 1: hydrogel; conditions: for State: ultrasonication, standing 48 h; for Concentration: concentration at which the state was recorded: lowest of 30, 60, 90, 120 mM that gave a gel, 120 mM for non-gelating peptides; for GELATION: 1 = hydrogel, 0 = no hydrogel
Outline: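 Gelation judged by vial inversion, a non-flowing self-supporting sample counting as hydrogel, after 48 h standing. Peptide in water at 30 mM first, escalating to 60, 90 and 120 mM if no gel; pH set to 6.5–8.5 by stepwise 1 N NaOH, each step sonicated briefly.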

[2] = Transmission electron microscope (negative staining) of peptide assemblies; conditions: for Morphology: TEM, negative staining with uranyl acetate, 120 kV; for morphology by TEM (in words): aqueous solution or hydrogel, negative staining
Method: We used the negative staining technique to observe the morphologies formed by peptides. A micropipette was used to load 10 μL of sample solution to a carbon-coated copper grid, and we used a piece of filter paper to remove the excess solution. After rinsing the grid with the deionized water, we used uranyl acetate to stain the sample for 1 minute and then rinsed the grid with deionized water again.

[3] = 120 mM peptide (highest tested) in ultrapure water, pH 6.5-8.5 (1 N NaOH), vial-inverting method, precipitate, sol, suspension = no gel
[4] = peptide concentration 120 mM, vial-inverting method
[5] = 60 mM peptide in ultrapure water, pH 6.5-8.5 (1 N NaOH), vial-inverting method, no gel at 30 mM
[6] = peptide concentration 60 mM, vial-inverting method
[7] = 30 mM peptide in ultrapure water, pH adjusted to 6.5-8.5 with 1 N NaOH, vial-inverting method, concentration raised 30/60/90/120 mM until gelation
[8] = peptide concentration 30 mM, vial-inverting method

Row | Structure (SMILES) | State [1, 3] | Concentration [1] [µM] | GELATION [1, 4] | Morphology ([2]; line of the table gives 120 mM) | morphology by TEM (in words) [2] | State [1, 5] | GELATION [1, 6] | Morphology ([2]; line of the table gives 60 mM) | State [1, 7] | GELATION [1, 8] | Morphology ([2]; line of the table gives 30 mM) | hydrogel formation (in words) ([1]; vial-inverting method, representative hydrogels pH between 7.0 to 7.5)
1 | O=C(CNC(=O)[C@@H]1CCCN1)N[C@@H](Cc1c[nH]c2ccccc12)C(=O)N[C@@H](Cc1c[nH]c2ccccc12)C(=O)O [PGWW] (H-PGWW-OH) | sol | 120000 | 0 | aggregates | aggregates with different sizes |  |  |  |  |  |  | 
2 | O=C(O)[C@@H]1CCCN1C(=O)[C@@H]1CCCN1C(=O)[C@@H]1CCCN1C(=O)[C@@H]1CCCN1 [PPPP] (H-PPPP-OH) | suspension | 120000 | 0 | particle |  |  |  |  |  |  |  | 
3 | CC[C@H](C)[C@H](NC(=O)[C@@H](NC(=O)[C@H](C)N)C(C)C)C(=O)N[C@@H](CCC(N)=O)C(=O)O [AVIQ] (H-AVIQ-OH) | suspension | 120000 | 0 | aggregates |  |  |  |  |  |  |  | 
4 | NCC(=O)NCC(=O)NCC(=O)NCC(=O)O [GGGG] (H-GGGG-OH) | sol | 120000 | 0 | aggregates |  |  |  |  |  |  |  | 
5 | CC[C@H](C)[C@H](N)C(=O)N[C@@H](Cc1ccccc1)C(=O)N[C@H](C(=O)N[C@@H](Cc1ccc(O)cc1)C(=O)O)[C@@H](C)CC [IFIY] (H-IFIY-OH) |  | 60000 |  |  |  | gel | 1 | hybrid(particle+fibre) |  |  |  | 
6 | N[C@@H](CO)C(=O)N[C@@H](Cc1c[nH]c2ccccc12)C(=O)N[C@@H](Cc1ccc(O)cc1)C(=O)N[C@@H](Cc1ccccc1)C(=O)O [SWYF] (H-SWYF-OH) | gel | 120000 | 1 | fibre |  |  |  |  |  |  |  | 
7 | CC(C)C[C@H](NC(=O)[C@H](Cc1c[nH]c2ccccc12)NC(=O)[C@@H](NC(=O)[C@@H](N)CCCCN)C(C)C)C(=O)O [KVWL] (H-KVWL-OH) |  | 60000 |  |  |  | gel | 1 | fibre |  |  |  | 
8 | CC(C)[C@H](NC(=O)[C@H](Cc1c[nH]c2ccccc12)NC(=O)[C@@H](N)CCCNC(=N)N)C(=O)N[C@@H](Cc1ccccc1)C(=O)O [RWVF] (H-RWVF-OH) | sol | 120000 | 0 | aggregates | aggregates with different sizes |  |  |  |  |  |  | 
9 | CC(C)C[C@H](NC(=O)[C@H](CC(C)C)NC(=O)[C@H](Cc1ccccc1)NC(=O)[C@@H](N)CCCCN)C(=O)O [KFLL] (H-KFLL-OH) | sol | 120000 |  | aggregates |  |  |  |  |  |  |  | 
10 | N=C(N)NCCC[C@H](NC(=O)[C@H](CCCNC(=N)N)NC(=O)[C@H](CCCNC(=N)N)NC(=O)[C@@H](N)CCCNC(=N)N)C(=O)O [RRRR] (H-RRRR-OH) | sol | 120000 | 0 | aggregates | aggregates with different sizes |  |  |  |  |  |  | 
11 | CC(C)[C@H](N)C(=O)N[C@@H](Cc1ccccc1)C(=O)N[C@H](C(=O)N[C@@H](Cc1ccccc1)C(=O)O)C(C)C [VFVF] (H-VFVF-OH) |  | 30000 |  |  |  |  |  |  | gel | 1 | sheet | 
12 | CC[C@H](C)[C@H](N)C(=O)N[C@@H](Cc1ccccc1)C(=O)N[C@@H](Cc1ccc(O)cc1)C(=O)N[C@H](C(=O)O)[C@@H](C)O [IFYT] (H-IFYT-OH) |  | 60000 |  |  | interlaced nanosheets | gel | 1 | sheet |  |  |  | hydrogels
13 | C[C@@H](O)[C@H](NC(=O)[C@@H](N)CS)C(=O)N[C@@H](Cc1ccc(O)cc1)C(=O)N[C@@H](Cc1ccccc1)C(=O)O [CTYF] (H-CTYF-OH) |  | 30000 |  |  |  |  |  |  | gel | 1 | fibre | 
14 | N[C@@H](CO)C(=O)N[C@@H](CO)C(=O)N[C@@H](Cc1ccccc1)C(=O)N[C@@H](Cc1ccccc1)C(=O)O [SSFF] (H-SSFF-OH) |  | 30000 |  |  |  |  |  |  | gel | 1 | fibre | 
